{
  "source": "patent US7495004B2",
  "about": "“Purine derivatives as liver X receptor agonists” (Glaxo Group Limited, priority 2002, dated 2009)",
  "key": {"[1]": {"target": "T1, LXRα ligand binding domain (Homo sapiens, UniProt Q13133)", "T1 construct": "His tag; made in house", "T1 sequence (Q13133 183-447)": "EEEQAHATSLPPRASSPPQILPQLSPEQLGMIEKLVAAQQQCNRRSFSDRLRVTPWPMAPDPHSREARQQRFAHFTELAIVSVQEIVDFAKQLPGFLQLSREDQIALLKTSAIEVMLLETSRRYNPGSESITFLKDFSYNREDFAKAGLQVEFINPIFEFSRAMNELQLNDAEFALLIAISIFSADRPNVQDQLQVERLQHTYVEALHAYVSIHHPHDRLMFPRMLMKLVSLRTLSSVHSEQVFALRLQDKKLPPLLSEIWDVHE", "T1 sequence (Q15788 676-700 partner)": "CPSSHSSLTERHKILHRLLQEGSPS", "assay": "Assay for LXRα activity (HTRF, SRC-1 peptide recruitment)", "type": "biochemical", "details": "1 μM; over a background reading of 10000 fluorescence units", "procedure": "The assay for LXRα was run according to the procedures of Example 1, above using his-tagged LXRα ligand binding domain (amino acids 183-447 of Genbank accession number U22662, with the 14th amino acid corrected to A from R). Percentage control is relative to 24(S),25-epoxycholesterol.\nIn this assay 1 μM 24(S),25-epoxycholesterol gave a reading of 20000 fluorescence units over a background reading of 10000 fluorescence units."}, "[2]": {"target": "T2, human LXRβ ligand binding domain (Homo sapiens, UniProt P55055)", "T2 construct": "made in house; host or cells: E. coli BL21 (DE3), vector pRSETa", "T2 sequence (P55055 184-460 limits assumed)": "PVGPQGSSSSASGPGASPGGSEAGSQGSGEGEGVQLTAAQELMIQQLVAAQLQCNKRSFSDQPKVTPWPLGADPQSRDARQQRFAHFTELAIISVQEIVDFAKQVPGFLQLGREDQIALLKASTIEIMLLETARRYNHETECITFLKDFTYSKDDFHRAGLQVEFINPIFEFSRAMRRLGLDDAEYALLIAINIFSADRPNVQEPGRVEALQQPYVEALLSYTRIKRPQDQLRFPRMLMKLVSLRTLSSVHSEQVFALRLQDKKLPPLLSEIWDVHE", "T2 sequence (Q15788 676-700 partner limits assumed)": "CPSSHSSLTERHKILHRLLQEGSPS", "assay": "Assay for LXRβ activity (HTRF, SRC-1 peptide recruitment)", "type": "biochemical", "details": "1 μM; over a background reading of 10000 fluorescence units", "procedure": "A modified polyhistidine tag (MKKGHHHHHHG) (SEQ ID No. 1) was fused in frame to the human LXRβ ligand binding domain (amino acids 185-461 of Genbank accession number U07132) and subeloned into the expression vector pRSETa (Invitrogen) under the control of an IPTG inducible T7 promoter. The human LXRβ ligand binding domain was expressed in E. coli strain BL21 (DE3). Ten-liter fermentation batches were grown in Rich PO4 media with 0.1 mg/mL Ampicillin at 25° C. for 12 hours, cooled to 9° C. and held at that temperature for 36 hours to a density of OD600=14. At this cell density, 0.25 mM IPTG was added and induction proceeded for 24 hours at 9° C., to a final OD600=16. Cells were harvested by centrifugation (20 minutes, 3500 g, 4° C.), and concentrated cell slurries were stored in PBS at −80° C.\nTypically 25-50 g of cell paste is resuspended in 250-500 mL TBS, pH 8.0 (25 mM Tris, 150 mM NaCl). Cells are lysed by passing 3 times through an APV Rannie MINI-lab homogenizer, and cell debris is removed by centrifugation (30 minutes, 20,000 g, 4° C.). […] After washing to baseline absorbance with equilibration buffer, the column is washed with approximately one column volume of TBS pH […] containing 95 mM imidazole. […] After washing to baseline absorbance with the dilution buffer the protein is eluted with a gradient from 50-500 mM NaCl. […]"}},
  "data": [
    {"smiles": "C[C@H](CC[C@@H]1OC1(C)C)[C@H]1CC[C@H]2[C@@H]3CC=C4C[C@@H](O)CC[C@]4(C)[C@H]3CC[C@]12C", "note": "[24(S),25-epoxycholesterol]", "values": [
      {"measurement": "reading in LXRα assay", "setting": "[1]", "result": 20000, "unit": "fluorescence units"},
      {"measurement": "reading in LXRβ assay", "setting": "[2]", "result": 20000, "unit": "fluorescence units"}
    ]}
  ]
}
